The target in assay [1] is T1, Recombinant ROCK1 (amino acids 1-477) (Homo sapiens, UniProt Q13464).
T1 construct: Recombinant ROCK1 (amino acids 1-477); by word order, ROCK1 from Carna Biosciences
Description: ROCK inhibition assay, LANCE Ultra TR-FRET kinase assay (ROCK1). The note with it: 1 μM ATP, 50 nM ULight-CREBtide substrate. It is filed as biochemical. In outline:
(§1)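 Reaction buffer 50 mM HEPES pH 7.5, 10 mM MgCl2, 1 mM EGTA, 2 mM DTT; kinase, ULight-CREBtide (50 nM) and ATP (ROCK1 1 μM, ROCK2 4 μM) react 1 h at room temperature. Phospho-Ser133 detected by europium antibody after 10 mM EDTA stop, TR-FRET ex 320 nm; IC50 calculated.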

Assay [2] addresses T2, Recombinant ROCK2 (amino acids 5-554) (Homo sapiens, UniProt O75116).
T2 construct: ROCK2 (amino acids 5-554); by word order, ROCK2 from SignalChem
Description: ROCK inhibition assay, LANCE Ultra TR-FRET kinase assay (ROCK2). It is filed as biochemical. The note with it: 4 μM ATP, 50 nM ULight-CREBtide substrate. In outline:
as §1
For orientation: TR-FRET usually uses a lanthanide donor and a delayed reading to cut background.

As usually defined, the IC50 is the concentration at which inhibition is half-maximal.

T1 sequence (Q13464 1-477): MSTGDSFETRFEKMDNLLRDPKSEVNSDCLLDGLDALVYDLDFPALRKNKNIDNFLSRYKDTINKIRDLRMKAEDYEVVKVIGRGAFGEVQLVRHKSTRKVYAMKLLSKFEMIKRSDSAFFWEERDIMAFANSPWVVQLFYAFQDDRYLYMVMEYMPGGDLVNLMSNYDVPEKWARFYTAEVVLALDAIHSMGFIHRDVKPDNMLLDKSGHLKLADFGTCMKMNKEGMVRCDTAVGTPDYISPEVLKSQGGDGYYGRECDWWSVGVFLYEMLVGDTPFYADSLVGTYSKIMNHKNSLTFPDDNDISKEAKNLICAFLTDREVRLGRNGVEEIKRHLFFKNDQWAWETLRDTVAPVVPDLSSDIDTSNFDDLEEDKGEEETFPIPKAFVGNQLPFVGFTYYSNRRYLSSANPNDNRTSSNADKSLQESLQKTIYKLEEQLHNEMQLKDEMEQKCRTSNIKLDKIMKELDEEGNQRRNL
T2 sequence (O75116 5-554): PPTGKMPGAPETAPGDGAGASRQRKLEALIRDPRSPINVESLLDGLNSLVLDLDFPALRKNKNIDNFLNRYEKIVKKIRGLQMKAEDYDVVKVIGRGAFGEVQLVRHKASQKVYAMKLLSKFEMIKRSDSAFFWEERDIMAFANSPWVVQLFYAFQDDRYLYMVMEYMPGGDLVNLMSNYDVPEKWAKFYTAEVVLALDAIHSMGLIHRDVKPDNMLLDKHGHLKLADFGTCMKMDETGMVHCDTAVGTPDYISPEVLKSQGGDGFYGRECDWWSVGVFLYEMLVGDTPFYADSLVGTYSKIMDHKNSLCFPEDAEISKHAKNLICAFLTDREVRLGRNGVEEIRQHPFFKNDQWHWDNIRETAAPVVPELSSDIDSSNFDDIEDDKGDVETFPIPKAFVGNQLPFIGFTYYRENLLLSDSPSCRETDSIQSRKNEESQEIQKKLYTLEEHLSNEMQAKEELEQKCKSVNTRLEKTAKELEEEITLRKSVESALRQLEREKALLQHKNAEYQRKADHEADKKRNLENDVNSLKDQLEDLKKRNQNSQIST

For `Cc1nocc1-c1ccc2c(=O)n(Cc3cc(F)cc(C(=O)NCc4ccc(F)nc4)c3)ccc2c1` [Compound 147], the IC50 was 0.011 to 0.1 µM in assay [1] and under 0.01 µM in assay [2].
In the same order, the values of `CNC(=O)c1cccc(C(C)n2cc(CCN(C)C)c3cc(-c4cn[nH]c4Cl)ccc3c2=O)c1` (centres unmarked) [Compound 565] are 0.011 to 0.1 µM and under 0.01 µM.
In the same order, the values of `O=C(N[C@H]1CC[C@@H](O)CC1)c1cc(F)cc(Cn2ccc3cc(-c4c[nH]nc4C(F)F)ncc3c2=O)c1` [Compound 275] are 0.011 to 0.1 µM and under 0.01 µM.
The corresponding values for `[2H]C([2H])([2H])NC(=O)c1cccc(Cn2ccc3cc(-c4conc4C)ccc3c2=O)c1` [Compound 307] are 0.011 to 0.1 µM and under 0.01 µM.
In the case of `CNC(=O)c1cc(Cn2ccc3cc(-c4cn[nH]c4C(F)(F)F)ccc3c2=O)ccc1F` [Compound 284], the values for the IC50 in assay [1] and in assay [2] were 0.101 to 0.5 µM and 0.01 to 0.1 µM, respectively.
In the same order, the values of `CN1CCC(CNC(=O)c2cccc(Cn3ccc4cc(-c5c[nH]nc5Cl)ccc4c3=O)c2)CC1` [Compound 64] are under 0.01 µM and under 0.01 µM.
Turning to `CNC(=O)c1cccc(Cn2cc(CCN(C)C)c3cc(-c4ccnn4C)ccc3c2=O)c1` [Compound 566], the figures for the IC50 in assay [1] and in assay [2] were 0.011 to 0.1 µM and under 0.01 µM, respectively.
For the molecule `Cn1nccc1-c1ccc2c(=O)n(Cc3cccc(C(=O)N[C@H]4CC[C@@H](O)CC4)c3)cnc2c1` [Compound 429], the IC50 in assay [1] was 0.011 to 0.1 µM; in assay [2] it was under 0.01 µM.
In the same order, the values of `O=C(NCC1CCOCC1)c1cc(F)cc(Cn2ccc3cc(-c4c[nH]nc4C(F)(F)F)ccc3c2=O)c1` [Compound 135] are 0.101 to 0.5 µM and 0.01 to 0.1 µM.
The corresponding values for `O=C(NCC1CCN(C2CC2)CC1)c1cc(F)cc(Cn2ccc3cc(N4CCOCC4)ccc3c2=O)c1` [Compound 226] are 0.101 to 0.5 µM and 0.01 to 0.1 µM.
In the same order, the values of `CN1CCC(CNC(=O)c2cc(F)cc(Cn3ccc4cc(N5CCOCC5)ccc4c3=O)c2)CC1` [Compound 222] are 0.101 to 0.5 µM and 0.01 to 0.1 µM.
As for `CC(C)NC(=O)c1cc(F)cc(Cn2ccc3cc(-c4c[nH]nc4Br)ncc3c2=O)c1` [Compound 272], the IC50 in assay [1] and in assay [2] was under 0.01 µM in each case.
As to `O=C(Nc1ccno1)c1cccc(Cn2ccc3cc(N4CCOCC4)ccc3c2=O)c1` [Compound 206], the IC50 in assay [1] was over 0.501 µM; in assay [2] it was over 0.5 µM.
In the same order, the values of `O=C(NCc1ccc(F)nc1)c1cccc(Cn2ccc3cc(-c4c[nH]nc4C(F)(F)F)ccc3c2=O)c1` [Compound 44] are 0.011 to 0.1 µM and under 0.01 µM.
In the same order, the values of `NCC(c1cccc(C(N)=O)c1)n1cnc2cc(-c3cn[nH]c3Cl)ccc2c1=O` (centres unmarked) [Compound 508] are over 0.501 µM and 0.1 to 0.5 µM.
In the same order, the values of `CNC(=O)c1cc(F)cc(Cn2ccc3cc(-c4c[nH]nc4Cl)ncc3c2=O)c1` [Compound 249] are under 0.01 µM and under 0.01 µM.
In the case of `Cc1nocc1-c1ccc2c(=O)n(Cc3cccc(NC(=O)c4ccc(F)cc4)c3)ccc2c1` [Compound 349], the values for the IC50 in assay [1] and in assay [2] were 0.011 to 0.1 µM and 0.01 to 0.1 µM, respectively.
`Cn1nccc1-c1ccc2c(=O)n(Cc3cccc(C(=O)NCC(F)(F)F)c3)ccc2c1` [Compound 103]: the IC50 in assay [1] lay in the range of 0.101 to 0.5 µM; in assay [2], 0.01 to 0.1 µM.
In the same order, the values of `CN1CCC(NC(=O)c2cccc(Cn3cnc4cc(-c5ccnc(N)c5)ccc4c3=O)c2)CC1` [Compound 436] are 0.011 to 0.1 µM and under 0.01 µM.
The corresponding values for `CNC(=O)c1cccc([C@@H](C)n2cnc3cc(-c4cn[nH]c4C(F)(F)F)ncc3c2=O)c1` [Compound 568, (R)—N-methyl-3-(1-(4-oxo-7-(5-(trifluoromethyl)-1H-pyrazol-4-yl)pyrido[4,3-d]pyrimidin-3(4H)-yl)ethyl)benzamide] are 0.011 to 0.1 µM and under 0.01 µM.
In the same order, the values of `CN1CCC(NC(=O)c2cccc(Cn3cnc4cc(-c5cn[nH]c5C(F)(F)F)ccc4c3=O)c2)CC1` [Compound 378] are under 0.01 µM and under 0.01 µM.
Turning to `C[C@H](c1cccc(C(=O)NCC2CCOCC2)c1)n1cnc2cc(-c3cn[nH]c3C(F)(F)F)ccc2c1=O` [Compound 451], the IC50 in assay [1] was 0.011 to 0.1 µM; in assay [2] it was under 0.01 µM.
In the same order, the values of `Cn1nccc1-c1cc2ccn(Cc3cc(F)cc(C(=O)NCC4COC4)c3)c(=O)c2cn1` [Compound 269] are 0.101 to 0.5 µM and 0.01 to 0.1 µM.
With `O=C(NC1CCOCC1)c1cccc(Cn2ccc3cc(-c4c[nH]nc4C(F)(F)F)ccc3c2=O)c1` [Compound 45], the IC50 is 0.101 to 0.5 µM in assay [1] and 0.01 to 0.1 µM in assay [2].
As for `Cc1nocc1-c1ccc2c(=O)n(Cc3cc(F)cc(C(=O)Nc4ccn(C)n4)c3)ccc2c1` [Compound 156], the IC50 in assay [1] is 0.011 to 0.1 µM; in assay [2], under 0.01 µM.
The corresponding values for `Nc1cc(-c2ccc3c(=O)n(Cc4cccc(C(=O)NCc5ccc6ccccc6c5)c4)ccc3c2)ccn1` [Compound 182] are over 0.501 µM and 0.1 to 0.5 µM.
In the same order, the values of `Cc1n[nH]cc1-c1cc2ccn(Cc3cc(F)cc(C(=O)NCC4CCN(C)CC4)c3)c(=O)c2cn1` [Compound 256] are under 0.01 µM and under 0.01 µM.
In the same order, the values of `O=C(NCC1CCN(C2CC2)CC1)c1cccc(Cn2ccc3cc(N4CCOCC4)ccc3c2=O)c1` [Compound 225] are 0.101 to 0.5 µM and 0.01 to 0.1 µM.
Take `Cc1nocc1-c1ccc2c(=O)n([C@H](C)c3cccc(C(=O)NCC4CCN(C)CC4)c3)cnc2c1` [Compound 472]: the half-inhibitory concentration (IC50) in assay [1] and in assay [2] was under 0.01 µM each time.
With `CNC(=O)c1cccc(Cn2ccc3cc(-c4ccncc4)ccc3c2=O)c1` [Compound 325], the IC50 lay in the range of 0.101 to 0.5 µM in assay [1] and 0.01 to 0.1 µM in assay [2].
Take `CN1CC(CNC(=O)c2cccc(Cn3ccc4cc(-c5ccnn5C)ccc4c3=O)c2)C1` [Compound 113]: the values for the IC50 in assay [1] and in assay [2] were 0.011 to 0.1 µM and under 0.01 µM, respectively.
In the same order, the values of `Cc1[nH]ncc1-c1ccc2c(=O)n(C(CN)c3cccc(Cl)c3)cnc2c1` (centres unmarked) [Compound 494] are under 0.01 µM and under 0.01 µM.
`C[C@H](c1cccc(C(=O)NCC2COC2)c1)n1cnc2cc(-c3cn[nH]c3C(F)(F)F)ccc2c1=O` [Compound 452]: the IC50 is 0.011 to 0.1 µM in assay [1] and under 0.01 µM in assay [2].
The corresponding values for `C[C@H](c1cccc(C(=O)N(C)C)c1)n1cnc2cc(-c3cn[nH]c3C(F)(F)F)ccc2c1=O` [Compound 442] are over 0.501 µM and over 0.5 µM.
As for `CNC(=O)c1cccc(Cn2cc(C(C)O)c3cc(-c4ccnc(N)c4)ccc3c2=O)c1` (centres unmarked) [Compound 545], the IC50 in assay [1] is 0.011 to 0.1 µM; in assay [2] it was under 0.01 µM.
In the same order, the values of `Cn1ccc(NC(=O)c2cc(F)cc(Cn3ccc4cc(-c5cn[nH]c5C(F)(F)F)ccc4c3=O)c2)n1` [Compound 128] are 0.011 to 0.1 µM and under 0.01 µM.
On to `Nc1cc(-c2ccc3c(=O)n(Cc4cccc(C(=O)NC5COC5)c4)ccc3c2)ccn1` [Compound 195], for which the figures for the IC50 in assay [1] and in assay [2] were 0.101 to 0.5 µM and 0.01 to 0.1 µM, respectively.
In the case of `CNC(=O)c1cccc(Cn2ccc3cc(-c4cnnn4C)ccc3c2=O)c1` [Compound 327], the IC50 is over 0.501 µM in assay [1] and over 0.5 µM in assay [2].
In the same order, the values of `COc1cccc(CN2CCc3cc(-c4cn[nH]c4)ccc3C2=O)c1` [Compound 1, 2-(3-methoxybenzyl)-6-(1H-pyrazol-4-yl)-3,4-dihydroisoquinolin-1(2H)-one] are over 0.501 µM and 0.1 to 0.5 µM.
In the same order, the values of `CNC(=O)c1cccc(Cn2ccc3cc(-c4ccoc4C)ccc3c2=O)c1` [Compound 303] are over 0.501 µM and over 0.5 µM.
The corresponding values for `Cc1[nH]ncc1-c1ccc2c(c1)NCN([C@H](CO)c1cccc(Cl)c1)C2=O` [Compound 523, (S)-3-(1-(3-chlorophenyl)-2-hydroxyethyl)-7-(5-methyl-1H-pyrazol-4-yl)-2,3-dihydroquinazolin-4(1H)-one] are over 0.501 µM and 0.1 to 0.5 µM.
Take `NS(=O)(=O)c1ccc(NC(=O)c2cc(F)cc(Cn3ccc4cc(-c5c[nH]nc5C(F)(F)F)ccc4c3=O)c2)cc1` [Compound 127]: the IC50 lay in the range of 0.101 to 0.5 µM in assay [1] and 0.01 to 0.1 µM in assay [2].
The corresponding values for `Cc1n[nH]cc1-c1ccc2c(=O)n(Cc3cccc(C(=O)Nc4ccc(S(N)(=O)=O)cc4)c3)ccc2c1` [Compound 36] are over 0.501 µM and 0.1 to 0.5 µM.
The corresponding values for `CNC(=O)c1cccc(Cn2cc(CCO)c3cc(-c4ccnc(N)c4)ccc3c2=O)c1` [Compound 558] are under 0.01 µM and 0.01 to 0.1 µM.
In the same order, the values of `Cn1nccc1-c1ccc2c(=O)n(Cc3cccc(C(=O)NCc4ccnc(F)c4)c3)ccc2c1` [Compound 117] are 0.101 to 0.5 µM and 0.01 to 0.1 µM.
Take `CN1CCN(CCNC(=O)c2cc(F)cc(Cn3ccc4cc(-c5ccnn5C)ncc4c3=O)c2)CC1` [Compound 268]: the figures for the IC50 in assay [1] and in assay [2] were 0.011 to 0.1 µM and under 0.01 µM, respectively.
In the case of `O=C(N[C@H]1CC[C@H](O)CC1)c1cccc(Cn2cnc3cc(-c4cn[nH]c4C(F)(F)F)ccc3c2=O)c1` [Compound 383], the IC50 was 0.011 to 0.1 µM in assay [1] and under 0.01 µM in assay [2].
The corresponding values for `Cc1nocc1-c1ccc2c(=O)n(Cc3cccc(C(=O)NCc4ccc(F)nc4)c3)cc(C(C)O)c2c1` (centres unmarked) [Compound 538] are under 0.01 µM and under 0.01 µM.
The corresponding values for `O=C(NCC1CCN(C2COC2)CC1)c1cccc(Cn2ccc3cc(N4CCOCC4)ccc3c2=O)c1` [Compound 227] are 0.101 to 0.5 µM and 0.01 to 0.1 µM.

(Values after US12064426B2, “Selective inhibitors of ROCK1 and ROCK2 protein kinases and uses thereof” (GENOSCO Inc., priority 2021, dated 2024).)
